Here are results for 20 compounds from patent publication US5824657A, “Aminoacyl sulfamides for the treatment of hyperproliferative disorders” (priority 1997, dated 1998).

Like-named read-outs stand apart in the source and are kept apart here.

Experiment [1] relates to aminoacyl-tRNA synthetases (aaRS) isolated from HeLa cells. Put plainly: IC50 determination, aaRS charging and trichloroacetic acid precipitation assay, aaRS partially purified from HeLa cell extracts. Conditions: preincubation 20 minutes at 25° C., reaction 5-20 minutes. It counts as biochemical. The procedure:
IC50 determinations for the aminoacyl-tRNA synthetases (aaRS) isolated from HeLa cells were carried out using a modification of the aaRS charging and trichloroacetic acid precipitation assay described previously (see examples: D. Kern et. al., Biochemie, 61, 1257-1272 (1979) and J. Gilbart et. al. Antimicrobial Agents and Chemotherapy, 37(1), 32-38 (1993)). […] For practical purposes, the minimal acceptable value is approximately 2000 cpm per 10 minute reaction. The final dilution of the HeLa extract in the assays for the aaRS enzymes varies from 50 to 1200-fold.
Test compounds were typically present as serial dilutions in concentrations ranging from 0.35 nM to 35 μM. Test compound solutions were prepared by dissolving test compounds in 100% dimethyl sulfoxide and diluting to the final concentration with 50 mM HEPES, pH 7.5. IC50 determinations were typically performed in duplicate with each experiment containing 4-8 concentrations of test compound and with duplicate controls containing no inhibitor.
The reaction was incubated at 25° C. for 5-20 minutes. At specified time points a 15 microliter aliquot was removed and added to a well of a Millipore filtration plate (Multiscreen-FB, MAFB NOB 10) containing 100 microliters of cold 5% (wt/vol) trichloroacetic acid. Trichloroacitic acid precipitable material was collected by filtration on a Millipore Multiscreen filtration station, washed twice with cold 5% trichloroacetic acid, twice with water, and dried. Plates were typically allowed to air dry for several hours or baked at 50° C. in a vacuum oven for 30 minutes. The radioactivity on the dried plates was quantitated by the addition of Packard Microscint-20 to the wells and counting with a Packard TopCount scintillation counter.
Inhibitor activity typically was reported as a percentage of the control aaRS activity. […] The IC50 (in nM, Hela Cells) values of representative compounds of the present invention are listed in column 5 of Table I.

Experiment [2] deals with human epidermoid carcinoma cell line A-253 (ATCC HTB 41). As to the kind of experiment: MTT assay, human epidermoid carcinoma cell line. The format is cell-based. Particulars: read-out: IC50 Human Epidermoid Carcinoma Cells ATCC # HTB 41. The protocol:
The MTT assay was used as a model to measure the inhibitory effects of the compounds of Formula I. The MTT assay is considered the most convenient modern assay for the determination of cell viability and cell proliferation. An MTT assay kit is commercially available (Chemicon International Inc., Temecula, Calif.). The MTT assay was performed according to manufacturer's instructions as outlined below.
A human epidermoid carcinoma cell line, designated as A-253 (ATCC HTB 41), was obtained in frozen vials from the American Type Culture Collection, Rockville, Md. Monolayer cultures were established from the vials by growth in RPMI 1640 medium supplemented with 10% fetal bovine serum (heat-inactivated), 2 mM L-glutamine, and pen-strep (100 units/ml; 100 μg/ml). The cultures were incubated at 37±1.5° C. in 5±1% CO2 in humidified air and were passaged weekly to avoid overgrowth. The laboratory cultures used for the present study were at passage seven after receipt of frozen stocks from ATCC.
Compounds of Formula I in powder form were stored at room temperature in plastic micro centrifuge tubes. Each tube was placed in a plastic bag containing desiccant. Each test compound was prepared as a 2 mg/ml solution in RPMI 1640 medium (non-supplemented) on the day of use, and the appropriate dilutions were prepared with the same vehicle.
Each compound was handled by sterile techniques in Class II, Type B biological safety cabinets.
The reference control compound was methotrexate at concentrations of 0.5 μg/ml to 50 μg/ml. A 1 mg/ml stock was prepared on the day of dosing and diluted to the appropriate concentrations using RPMI 1640 medium (non-supplemented).
A blank control was included in the MTT assay in order to determine the absorbance associated with the absence of any cells. This control was RPMI 1640 culture medium carried through the same procedures used to culture the cells in the microwell plates and to conduct the MTT assay color development. The microwell plate reader was zeroed against the blank control prior to recording the absorbance in the test wells.
Laboratory monolayer cultures of A-253 cells were trypsinized and seeded at a concentration of 24,000 cells in 0.05 ml of complete RPMI 1640 culture medium per well in 96-well plates. Eight wells in a column were seeded for each test condition. The blank control was prepared by adding 0.05 ml of culture medium (no cells) to 8 wells in the first column of each plate. A separate microwell plate was used for each compound of Formula I.
The test compound treatments were initiated immediately after seeding the cells by adding 0.05 ml of treatment medium to each microwell. Ten different test compound concentrations were prepared in culture medium (without serum), and each concentration was applied to a volume of eight wells on the appropriate plate. The final concentrations in the wells were 1000, 500, 250, 100, 50, 25, 10, 5, 2.5, and 1 μg/ml.
An untreated (zero-dose) condition was included as a column of 8 wells on each plate. The zero-dose and blank control wells received 0.05 ml of culture medium (without serum). The microwell plates were placed in an incubator at 37±1.5° C. in 5% CO2 in humidified air for an exposure period of 72±0.5 hours.
After the exposure period, 0.1 ml of MTT dye solution (0.5 mg/ml in serum free RPMI 1640 medium) was added to each micowell. The cultures were returned to the incubator for 2±0.1 hours. Then the medium was removed from each well and placed into a clean microwell plate for temporary storage. A volume of 0.1 ml of color development solution (Solution C, isopropanol with 0.04M HCl, Chemicon MTT Assay kit, Chemicon International Inc., Temecula, Calif.) was added to each new microwell. The contents were carefully mixed and allowed to sit at room temperature for approximately 1 hour. The medium that was saved from each microwell then was pipetted back into the well from which it originally came. […]
On the technique in general: Tetrazolium dyes change colour on reduction, which living cells bring about.

In experiment [3] the test system is normal human skin fibroblasts cell line ATCC CRL 1501. Put plainly: MTT assay, normal skin fibroblasts. The format is cell-based. Particulars: Skin fibroblast, similar manner to HTB 41 assay.
Protocol: The MTT assay was used as a model to measure the inhibitory effects of the compounds of Formula I. The MTT assay is considered the most convenient modern assay for the determination of cell viability and cell proliferation. […] The MTT assay was performed according to manufacturer's instructions as outlined below.
The cultures were returned to the incubator for 2±0.1 hours. Then the medium was removed from each well and placed into a clean microwell plate for temporary storage. A volume of 0.1 ml of color development solution (Solution C, isopropanol with 0.04M HCl, Chemicon MTT Assay kit, Chemicon International Inc., Temecula, Calif.) was added to each new microwell. […] The absorbance at 540 nm wavelength was determined in a microwell plate reader within two hours of the final preparation of the plates.
The absorbance at 540 nm was recorded for each well by the microwell plate reader after the instrument was zeroed against the blank controls for each plate. The mean absorbance for each test condition was calculated and compared to the mean absorbance for the zero-dose wells in order to obtain percent values. […]
Experiment [4] concerns isoleucyl-tRNA synthetase. Conditions: cited from earlier work.
For experiment [5], the system named is Gram positive bacterial pathogens such as Staphylococcus aureus. Conditions: cited from earlier work.
Where [6] appears, read: A253, MTT assay, exposure 72 hours, plot extended by eye for compounds active at lowest dose.

As usually defined, the IC50 is the concentration that gives 50% inhibition. In the case of `Nc1ncnc2c1ncn2[C@@H]1O[C@H](CNS(=O)(=O)NC(=O)[C@@H](N)Cc2c[nH]c3ccccc23)[C@@H](O)[C@H]1O` [Compound X, 5'-deoxy-adenosine 5'-N-(N-L-tryptophanyl)sulfamide], the half-maximal inhibitory concentration (IC50) in experiment [1] was found to be 300 nM; in experiment [2] (setting [6]), 530 nM; in experiment [3], 0.08 µM.
As to `NCCCC[C@H](N)C(=O)NS(=O)(=O)NC[C@H]1O[C@@H](n2cnc3c(N)ncnc32)[C@H](O)[C@@H]1O` [Compound XI], the values for the IC50 in experiment [1] and in experiment [2] (setting [6]) were 8 nM and 2530 nM, respectively.
Turning to `CC(C)C[C@H](N)C(=O)NS(=O)(=O)NC[C@H]1O[C@@H](n2cnc3c(N)ncnc32)[C@H](O)[C@@H]1O` [III], the values for the IC50 in experiment [1], in experiment [2] (setting [6]) and in experiment [3] were 0.5 nM, 1370 nM and 13 µM, respectively.
In the case of `CC(C)[C@H](N)C(=O)NS(=O)(=O)NC[C@H]1O[C@@H](n2cnc3c(N)ncnc32)[C@H](O)[C@@H]1O` [II], the figures for the half-inhibitory concentration (IC50) in experiment [1] and in experiment [2] (setting [6]) were 27 nM and 4950 nM, respectively.
Taken in the same sequence, the figures for `CSCC[C@H](N)C(=O)NS(=O)(=O)NC[C@H]1O[C@@H](n2cnc3c(N)ncnc32)[C@H](O)[C@@H]1O` [IV] were 3 nM and 1050 nM.
Taken in the same sequence, the figures for `NCC(=O)NS(=O)(=O)NC[C@H]1O[C@@H](n2cnc3c(N)ncnc32)[C@H](O)[C@@H]1O` [IX] were 50 nM and 1490 nM.
Taken in the same sequence, the figures for `CC[C@H](C)[C@H](N)C(=O)NS(=O)(=O)NC[C@H]1O[C@@H](n2cnc3c(N)ncnc32)[C@H](O)[C@@H]1O` [I] were 0.9 nM and 3050 nM.
With `CN(Cc1cnc2nc(N)nc(N)c2n1)c1ccc(C(=O)N[C@@H](CCC(=O)O)C(=O)O)cc1` [Methotrexate, reference compound], the IC50 in experiment [2] (A253, 72 h) amounted to 40 nM.
In the case of `CC(=CC(=O)OCCCCCCCCC(=O)O)CC1OCC(CC2OC2C(C)C(C)O)C(O)C1O` (stereo not drawn) [Pseudomonic acid A], the “inhibition of isoleucyl adenylate formation” value in experiment [4] is “inhibits isoleucyl adenylate formation”. For the same compound, the “inhibition of protein synthesis and growth” value in experiment [5] was “inhibition of protein synthesis, followed by growth inhibition”.
As for `CC1=C(/C=C/C(C)=C/C=C/C(C)=C/C(=O)O)C(C)(C)CCC1` [Retinoic acid, reference compound], the IC50 in experiment [2] (A253, 72 h) was determined as 266000 nM.
On to `Nc1ncnc2c1ncn2[C@@H]1O[C@H](CNS(=O)(=O)NC(=O)[C@@H](N)CO)[C@@H](O)[C@H]1O` [VI, 5'-deoxy-adenosine 5'-N-(N-L-seryl)sulfamide], for which the IC50 in experiment [1] turned out to be 140 nM; in experiment [2] (setting [6]), 9250 nM.
For `Nc1ncnc2c1ncn2[C@@H]1O[C@H](CNS(=O)(=O)NC(=O)[C@@H](N)CC(=O)O)[C@@H](O)[C@H]1O` [VIII] the same measures were 174 nM and 5000 nM.
Taken in the same sequence, the figures for `C[C@H](N)C(=O)NS(=O)(=O)NC[C@H]1O[C@@H](n2cnc3c(N)ncnc32)[C@H](O)[C@@H]1O` [VII] were 22 nM and 1440 nM.
For `Nc1ncnc2c1ncn2[C@@H]1O[C@H](CNS(=O)(=O)NC(=O)[C@@H](N)Cc2ccc(O)cc2)[C@@H](O)[C@H]1O` [V] the same measures were 17 nM and 790 nM.
Consider `Nc1ncnc2c1ncn2[C@@H]1O[C@H](CNS(=O)(=O)NC(=O)[C@@H](N)Cc2c[nH]cn2)[C@@H](O)[C@H]1O` [XIII], for which the IC50 is 2 nM in experiment [1] and 2690 nM in experiment [2] (setting [6]).
Regarding `Nc1ncnc2c1ncn2[C@@H]1O[C@H](CNS(=O)(=O)NC(=O)[C@@H](N)CCC(=O)O)[C@@H](O)[C@H]1O` [XII], the IC50 in experiment [2] (setting [6]) turned out to be 10500 nM.
`C[C@@H](O)[C@H](N)C(=O)NS(=O)(=O)NC[C@H]1O[C@@H](n2cnc3c(N)ncnc32)[C@H](O)[C@@H]1O` [XVIII]: the results for the half-inhibitory concentration (IC50) in experiment [1] and in experiment [2] (setting [6]) were 40 nM and 9630 nM, respectively.
For `N=C(N)NCCC[C@H](N)C(=O)NS(=O)(=O)NC[C@H]1O[C@@H](n2cnc3c(N)ncnc32)[C@H](O)[C@@H]1O` [XVII] the same measures were 14 nM and 3990 nM.
For `NC(=O)CC[C@H](N)C(=O)NS(=O)(=O)NC[C@H]1O[C@@H](n2cnc3c(N)ncnc32)[C@H](O)[C@@H]1O` [XVI] the same measures were 400 nM and 3590 nM.
Take `Nc1ncnc2c1ncn2[C@@H]1O[C@H](CNS(=O)(=O)NC(=O)[C@@H]2CCCN2)[C@@H](O)[C@H]1O` [XV]: the IC50 in experiment [1] came out at 1 nM; in experiment [2] (setting [6]) it was 900 nM.
